This note sets out measurements from EP2526945A1, “New CRTH2 Antagonists” (Almirall, S.A., priority 2011, dated 2012).

The assay deals with T1, CRTh2 receptor (Homo sapiens, UniProt Q9Y5Y4).
T1 construct: expressed in transfected cells; host or cells: CHO.K1 cells (membranes)
T1 sequence (Q9Y5Y4 1-395): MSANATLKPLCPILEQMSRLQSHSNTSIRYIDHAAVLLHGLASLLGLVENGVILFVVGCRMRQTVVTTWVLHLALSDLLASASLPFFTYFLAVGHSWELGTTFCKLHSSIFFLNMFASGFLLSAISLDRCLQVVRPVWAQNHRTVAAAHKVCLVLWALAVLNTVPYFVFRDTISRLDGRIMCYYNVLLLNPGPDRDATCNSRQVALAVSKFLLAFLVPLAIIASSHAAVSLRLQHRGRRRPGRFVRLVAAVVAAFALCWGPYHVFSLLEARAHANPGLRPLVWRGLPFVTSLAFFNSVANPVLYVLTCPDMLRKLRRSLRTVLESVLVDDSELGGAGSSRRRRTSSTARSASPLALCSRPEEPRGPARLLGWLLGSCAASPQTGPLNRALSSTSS
The experiment in a line: CRTh2 GTPγS antagonism binding assay. The assay is classed as biochemical. The note with it: membranes from CHO.K1 cells stably overexpressing the CRTh2 receptor; PGD2 at 50 nM (EC80); [35S]-GTPγS as radioligand; read-out: GTPγ Binding. The method, then:
CRTh2 GTPγS antagonism binding assay
The assay is performed using membranes obtained from CHO.K1 cells stably overexpressing the CRTh2 receptor and [^35S]-GTPγS as radioligand. Assay is performed pre-incubating 4-8 µg of membranes per well with the compound to be tested for 1 h, followed by incubation with PGD2 at 50 nM (EC80), 0.1 nM [^35S]-GTPγS in incubation buffer (20 mM HEPES, 10 mM MgCl2, 100 mM NaCl, 10 µM GDP, 10 µg/ml Saponine and 0.2% BSA) for 2 h at room temperature. The reaction is terminated by filtering in GF/C plates pre-treated with 20 mM HEPES, 10 mM MgCl2, 100 mM NaCl and washing 6 times with wash buffer (20 mM NaH2PO4, 20 mM Na2HPO4). After washing, plates are dried and scintillation buffer Optiphase added. The radioactivity retained in the filter is counted using a Microbeta liquid scintillation counter.
As to `COc1ccc(S(=O)(=O)c2ccccc2Cc2c3c(n(CC(=O)O)c2C)CCNC3=O)cc1` [Example 15, (3-{2-[(4-Methoxyphenyl)sulfonyl]benzyl}-2-methyl-4-oxo-4,5,6,7-tetrahydro-1H-pyrrolo[3,2-c]pyridin-1-yl)acetic acid], the IC50 stood at 3.9 nM.

On to `Cc1c(Cc2ccccc2S(=O)(=O)C2CCCCC2)c2c(n1CC(=O)O)CCNC2=O` [Example 23, {3-[2-(Cyclohexylsulfonyl)benzyl]-2-methyl-4-oxo-4,5,6,7-tetrahydro-1H-pyrrolo[3,2-c]pyridin-1-yl}acetic acid], for which the IC50 was found to be 27 nM.

`Cc1c(Cc2cc(Br)ccc2S(=O)(=O)c2ccccc2)c2c(n1CC(=O)O)CCNC2=O` [Example 42, {3-[5-Bromo-2-(phenylsulfonyl)benzyl]-2-methyl-4-oxo-4,5,6,7-tetrahydro-1H-pyrrolo[3,2-c]pyridin-1-yl}acetic acid]: the IC50 came to 3.9 nM.
